Assay: xn = mol fraction of the nth substance listed

ClC(Cl)(Cl)Cl + c1ccccc1
Conditions	viscosity [mPa·s]
293.25 K, 101 kPa, x1 = 0.4	0.8063
293.25 K, 101 kPa, x1 = 0.5	0.8381
293.25 K, 101 kPa, x1 = 0.8	0.943
293.35 K, 101 kPa, x1 = 0.2	0.7416
298 K, 101 kPa, x1 = 0.1367	0.64
298 K, 101 kPa, x1 = 0.1809	0.653
298 K, 101 kPa, x1 = 0.2176	0.664
298 K, 101 kPa, x1 = 0.2521	0.672
298 K, 101 kPa, x1 = 0.2882	0.68
298 K, 101 kPa, x1 = 0.3188	0.688
298 K, 101 kPa, x1 = 0.3463	0.697
298 K, 101 kPa, x2 = 0.189	0.8814
298 K, 101 kPa, x2 = 0.2701	0.8626
298 K, 101 kPa, x2 = 0.344	0.845
298 K, 101 kPa, x2 = 0.4734	0.8084
298 K, 101 kPa, x2 = 0.583	0.7751
298 K, 101 kPa, x2 = 0.6318	0.7601
298 K, 101 kPa, x2 = 0.6771	0.7455
298 K, 101 kPa, x2 = 0.7194	0.7309
298 K, 101 kPa, x2 = 0.7588	0.7176
298 K, 101 kPa, x2 = 0.8303	0.6917
298 K, 101 kPa, x2 = 0.8935	0.667
298 K, 101 kPa, x2 = 0.9224	0.6567
298 K, 101 kPa, x2 = 0.9497	0.6424
298 K, 101.3 kPa, x1 = 0.1472	0.655
298 K, 101.3 kPa, x1 = 0.2844	0.69
298 K, 101.3 kPa, x1 = 0.4778	0.744
298 K, 101.3 kPa, x1 = 0.6302	0.79
298 K, 101.3 kPa, x1 = 0.8302	0.842
298.15 K, 101 kPa, x1 = 0.0951	0.6268
298.15 K, 101 kPa, x1 = 0.169	0.6474
298.15 K, 101 kPa, x1 = 0.2348	0.6652
298.15 K, 101 kPa, x1 = 0.2559	0.6726
298.15 K, 101 kPa, x1 = 0.3734	0.7073
298.15 K, 101 kPa, x1 = 0.4835	0.7352
298.15 K, 101 kPa, x1 = 0.4917	0.7429
298.15 K, 101 kPa, x1 = 0.5951	0.7742
298.15 K, 101 kPa, x1 = 0.6135	0.7803
298.15 K, 101 kPa, x1 = 0.7561	0.8236
298.15 K, 101 kPa, x1 = 0.7767	0.8291
298.15 K, 101 kPa, x1 = 0.9264	0.8783
298.15 K, 101 kPa, x2 = 0.1022	0.8965
298.15 K, 101 kPa, x2 = 0.2	0.832
298.15 K, 101 kPa, x2 = 0.2062	0.8621
298.15 K, 101 kPa, x2 = 0.2386	0.808
298.15 K, 101 kPa, x2 = 0.3055	0.8356
298.15 K, 101 kPa, x2 = 0.4	0.773
298.15 K, 101 kPa, x2 = 0.4022	0.8053
298.15 K, 101 kPa, x2 = 0.5051	0.7709
298.15 K, 101 kPa, x2 = 0.5755	0.706
298.15 K, 101 kPa, x2 = 0.6	0.714
298.15 K, 101 kPa, x2 = 0.604	0.7357
298.15 K, 101 kPa, x2 = 0.7006	0.7062
298.15 K, 101 kPa, x2 = 0.736	0.66
298.15 K, 101 kPa, x2 = 0.8	0.658
298.15 K, 101 kPa, x2 = 0.8004	0.6785
298.15 K, 101 kPa, x2 = 0.8991	0.6415
298.15 K, 101.33 kPa, x1 = 0.125	0.6346
298.15 K, 101.33 kPa, x1 = 0.2348	0.6652
298.15 K, 101.33 kPa, x1 = 0.4835	0.7352
298.15 K, 101.33 kPa, x1 = 0.5	0.7404
298.15 K, 101.33 kPa, x1 = 0.65	0.7872
298.15 K, 101.33 kPa, x1 = 0.7767	0.8291
298.15 K, 101.33 kPa, x1 = 0.9	0.8691
302.65 K, 101 kPa, x1 = 0.4	0.707
302.65 K, 101 kPa, x1 = 0.5	0.7278
303.15 K, 101 kPa, x2 = 0.1022	0.8407
303.15 K, 101 kPa, x2 = 0.2062	0.8084
303.15 K, 101 kPa, x2 = 0.3055	0.7825
303.15 K, 101 kPa, x2 = 0.4022	0.7545
303.15 K, 101 kPa, x2 = 0.5051	0.7209
303.15 K, 101 kPa, x2 = 0.604	0.688
303.15 K, 101 kPa, x2 = 0.7006	0.6616
303.15 K, 101 kPa, x2 = 0.8004	0.6348
303.15 K, 101 kPa, x2 = 0.8991	0.6047
303.25 K, 101 kPa, x1 = 0.8	0.8132
303.35 K, 101 kPa, x1 = 0.6	0.7543
303.65 K, 101 kPa, x1 = 0.2	0.6404
308 K, 101 kPa, x2 = 0.189	0.7518
308 K, 101 kPa, x2 = 0.2701	0.7355
308 K, 101 kPa, x2 = 0.344	0.7202
308 K, 101 kPa, x2 = 0.4734	0.6919
308 K, 101 kPa, x2 = 0.583	0.6652
308 K, 101 kPa, x2 = 0.6318	0.6524
308 K, 101 kPa, x2 = 0.6771	0.6391
308 K, 101 kPa, x2 = 0.7194	0.627
308 K, 101 kPa, x2 = 0.7588	0.6159
308 K, 101 kPa, x2 = 0.8303	0.5939
308 K, 101 kPa, x2 = 0.8935	0.5753
308 K, 101 kPa, x2 = 0.9224	0.5661
308 K, 101 kPa, x2 = 0.9497	0.5573
308.15 K, 101 kPa, x2 = 0.1022	0.7881
308.15 K, 101 kPa, x2 = 0.2062	0.758
308.15 K, 101 kPa, x2 = 0.3055	0.732
308.15 K, 101 kPa, x2 = 0.4022	0.7062
308.15 K, 101 kPa, x2 = 0.5051	0.6748
308.15 K, 101 kPa, x2 = 0.604	0.6434
308.15 K, 101 kPa, x2 = 0.7006	0.62
308.15 K, 101 kPa, x2 = 0.8004	0.5929
308.15 K, 101 kPa, x2 = 0.8991	0.5655
312.15 K, 101 kPa, x1 = 0.5	0.6431
312.35 K, 101 kPa, x1 = 0.4	0.6172
312.35 K, 101 kPa, x1 = 0.6	0.6695
312.35 K, 101 kPa, x1 = 0.8	0.7173
312.65 K, 101 kPa, x1 = 0.2	0.5692
313.15 K, 101 kPa, x2 = 0.1022	0.7415
313.15 K, 101 kPa, x2 = 0.2062	0.7096
313.15 K, 101 kPa, x2 = 0.3055	0.6862
313.15 K, 101 kPa, x2 = 0.4022	0.659
313.15 K, 101 kPa, x2 = 0.5051	0.6313
313.15 K, 101 kPa, x2 = 0.604	0.6024
313.15 K, 101 kPa, x2 = 0.7006	0.58
313.15 K, 101 kPa, x2 = 0.8004	0.5544
313.15 K, 101 kPa, x2 = 0.8991	0.5291
318 K, 101 kPa, x2 = 0.189	0.6483
318 K, 101 kPa, x2 = 0.2701	0.6346
318 K, 101 kPa, x2 = 0.344	0.6217
318 K, 101 kPa, x2 = 0.4734	0.599
318 K, 101 kPa, x2 = 0.583	0.5775
318 K, 101 kPa, x2 = 0.6318	0.5665
318 K, 101 kPa, x2 = 0.6771	0.5566
318 K, 101 kPa, x2 = 0.7194	0.5469
318 K, 101 kPa, x2 = 0.7588	0.5373
318 K, 101 kPa, x2 = 0.8303	0.5209
318 K, 101 kPa, x2 = 0.8935	0.5053
318 K, 101 kPa, x2 = 0.9224	0.4992
318 K, 101 kPa, x2 = 0.9497	0.492
318 K, 101.3 kPa, x1 = 0.1399	0.5125
318 K, 101.3 kPa, x1 = 0.2838	0.5478
318 K, 101.3 kPa, x1 = 0.4793	0.6011
318 K, 101.3 kPa, x1 = 0.6289	0.6411
318 K, 101.3 kPa, x1 = 0.8405	0.6993
322.25 K, 101 kPa, x1 = 0.2	0.5085
